# In patent US20120095445A1, “METHODS AND COMPOSITIONS FOR INCREASING TRICHOGENIC POTENCY OF DERMAL CELLS” (Aderans Research Institute, Inc., priority 2009, published 2012):
# Columns and labels:
# dermal cells = assay: Growth and yield of dermal cells in culture (population doubling time, number of cells); assay type: cell-based, human
# Text: FIG. 3A is a graph showing the population doubling time of dermal cells treated with the indicated amount of a Shh pathway agonist. FIG. 3B is a graph showing number of cells (millions) of dermal cells treated with Shh pathway agonist at confluence.
# FIG. 5A is a graph showing the average number of cells (millions) in flasks using dermal cells treated with the indicated amount of Shh pathway agonist after one passage in culture. FIG. 5B is a graph showing the average number of cells (millions) in flasks using dermal cells treated with the indicated amount of Shh pathway agonist after two passages in culture. FIG. 5C is a graph of population doubling time (days) for dermal cells treated with the indicated amount of Shh pathway agonist after one passage in culture. FIG. 5D is a graph of population doubling time (days) for dermal cells treated with the indicated amount of Shh pathway agonist after two passages in culture.
# human adult dermal cells = assay: Aderans Hair Patch Assay (hybrid patch assay) with cultured human adult dermal cells; assay type: cell-based
# Text: Trichogenic activity of populations of dermal cells can be determined by using the Aderans Hair Patch Assay™ (Zheng, Y., J Invest Dermatol, 124: 867-876 (2005)). In this assay dissociated dermal and epidermal cells are implanted into the dermis or the subcutis of an immunoincompetent mouse. Using mouse newborn skin cells, new hair follicles typically form in this assay within 8 to 10 days. The newly formed follicle manifests normal hair shafts, mature sebaceous glands, and a natural hair cycle. Although normal cycling hair follicles are formed in this assay, the assay primarily measures the ability of cells or combinations of cells to form new follicles. Mouse dermal cells are assayed in conjunction with mouse neonatal epidermal cells.
# (§1) Trichogenic activity of populations of dermal cells was determined by the Aderans Hair Patch Assay™ (Zheng, Y., J Invest Dermatol, 124: 867-876 (2005)). In this assay dissociated dermal and epidermal cells are implanted into the dermis or the subcutis of an immunoincompetent mouse. Using mouse newborn skin cells, new hair follicles typically form in this assay within 8 to 10 days. The newly formed follicle manifests normal hair shafts, mature sebaceous glands, and a natural hair cycle. Although normal cycling hair follicles are formed in this assay, the assay primarily measures the ability of cells or combinations of cells to form new follicles. In the classical Patch assay mouse neonatal dermal cells were assayed in conjunction with mouse neonatal epidermal cells. In a modification of that assay human adult dermal cells are assayed in the presence of mouse newborn epidermal cells.
# In the initial study four different concentrations of one of the Curls, Inc. Shh pathway agonist (agonist A-CUR-0201365) were used, 0, 0.005, 0.05 and 0.125 ug/ml (FIG. 2A). […] The number of hair follicles formed in the hair patch assay is greater when the cells are grown in the presence of the Shh pathway agonist.
# To investigate if Shh pathway agonist can increase cell inductivity with short-term treatment (7 days before harvest); 3 patient samples were tested using agonist B. For each sample, the cells were treated with 0, 0.0125, 0.0375, 0.05 and 0.15 ug/ml of Shh pathway agonist B at the passage P1 or P2. P1 and P2 cells were then harvested after approximately 7 days and analyzed in the hybrid patch assay. […] Cells were treated for that 7 day period only, but not treated prior to that.
# human fetal cells = assay: Aderans Hair Patch Assay with human fetal cell cultures; assay type: cell-based; conditions: for effect on hair number: FIG. 9
# Text: FIG. 7 is a graph of the number of hair follicles formed from human fetal cell cultures in the Aderans Hair Patch Assay™ versus the indicated cell culture passage P0, P1, P2 or P3 in cells culture with a Shh pathway agonist. Each passage has a pair of columns with the left column corresponding to results obtained without treating the cells with an agonist and a right column showing results with cells treated with an agonist.
# FIG. 8 is a graph of number of hair follicles formed from human fetal cell cultures in the Aderans Hair Patch Assay™ in untreated or treated cells at the indicated cell culture passage.
# FIG. 9 is a graph of the number of hair follicles formed from human fetal cell cultures in the Aderans Hair Patch Assay™ in the indicated medium.
# as §1
# We have recently extended our study of the impact of SHH pathway agonist B (CUR-0236715) on hair inducing activity from human adult cells to human fetal cells, as well as mouse cells.
# In another experiment, cells were initially cultured in medium without SHH pathway agonist. The SHH pathway agonist CUR-0236715 was only added to the culture at the beginning of a particular passage, and lasted for that passage only (P1 and P4 as shown in FIG. 8). Adding SHH pathway agonist B (CUR-0236715) at these later passages can still increase fetal cell trichogenicity.
# [1] = system: mouse neonatal dermal cells; assay: Patch assay with mouse neonatal dermal cell culture; assay type: cell-based
# Method: as §1
# In addition to cultured human cells, the SHH pathway agonist B was added to mouse neonatal dermal cell culture.
Compound,"cell growth rate (dermal cells; in the higher concentrations, FIG. 3)","hair follicles in the patch assay (per million cells injected) compared to non-treated cells (human adult dermal cells; cells grown in medium with agonist, 0.005-0.625 ug/ml, FIG. 2)","trichogenicity with passage (P1 through P4) (human adult dermal cells; highest concentration, without agonist trichogenicity diminished)",dose-response relationship of hair follicle number in patch assay (human adult dermal cells; increasing agonist concentration in the medium),"increase in hair number (human fetal cells; 37.5 ng/ml at P0, FIG. 7)","effect on hair number (human fetal cells; Amniomax, Chang's media and culture medium of Osada et al.)",effect on hair number (human fetal cells; agonist added to cell culture medium),number of hair follicles versus cells consistently treated throughout the culture (human fetal cells; agonist only at P1 or P4),"number of hair follicles formed versus no SHH control cells (human fetal cells; agonist only at P1 or P4, for that passage only, FIG. 8)","increase of hair number at later passages (human fetal cells; cells continuously cultured in the presence of agonist, FIG. 7)","adverse effect on cell growth or yield (dermal cells; all the concentrations tested, FIG. 5)",short term results versus continuous treatment (human adult dermal cells; 7 day treatment only),"optimal concentration for hair follicle formation (human adult dermal cells; continuous treatment, at P2, FIG. 4B)","hair follicle number in patch assays (human adult dermal cells; continuous treatment, various agonist concentrations, FIG. 4)","hair follicle numbers compared to the control (human adult dermal cells; short-term treatment (7 days before harvest), 0.0125-0.15 ug/ml, P1 or P2, 3 patient samples, FIGS. 6A and 6B)","optimal concentration (human adult dermal cells; short-term treatment (7 days), P1 and P2 cells)",size of hair follicles compared to non-treated cells [1],"activity as indicated by the number of hair follicles formed in patch assay ([1]; preliminary data, FIG. 10)"
CNC1CCC(N(Cc2cc(-c3ccccc3)ccc2OC)C(=O)c2sc3ccccc3c2Cl)CC1 (stereo not drawn) [agonist A],decreases,produced more hair follicles,remained at a high level,increasing effect (hair follicle number in patch assay) with increasing Shh pathway agonist concentration,,,,,,,,,,,,,,
CNC1CCC(N(Cc2cc(-c3ccc(NS(C)(=O)=O)nc3)ccc2OC)C(=O)c2sc3c(F)ccc(F)c3c2Cl)CC1 (stereo not drawn) [agonist B],,,,,more than 3 fold,not significant,increase of hair number,equivalent,about 5 fold,extended to later passages (P3),did not show any adverse effect,comparable to that of continuous treatment,0.0375 µg/mL,increased hair follicle number,higher hair follicle numbers,0.0375 µg/mL,increased significantly,increased activity
